Data: patent US8791267B2, “Biaryl PDE4 inhibitors for treating inflammatory, cardiovascular and CNS disorders” (Decode Genetics EHF, priority 2007, dated 2014)
Counter-ions that a name gives are not always drawn. Like-named read-outs stand apart in the source and are kept apart here.

What was measured:
PDE4 = PDE4 (Homo sapiens, UniProt Q08499); assay: In-vitro assay for PDE4 enzymes, real-time enzyme-coupled spectrophotometric assay (Table 9); format: biochemical
PDE4B = PDE4B (Homo sapiens, UniProt Q07343); assay: In-vitro assay for PDE4 enzymes, real-time enzyme-coupled spectrophotometric assay, PDE4B Activity (Table 10); format: biochemical
Chain of PDE4B (Q07343 whole entry): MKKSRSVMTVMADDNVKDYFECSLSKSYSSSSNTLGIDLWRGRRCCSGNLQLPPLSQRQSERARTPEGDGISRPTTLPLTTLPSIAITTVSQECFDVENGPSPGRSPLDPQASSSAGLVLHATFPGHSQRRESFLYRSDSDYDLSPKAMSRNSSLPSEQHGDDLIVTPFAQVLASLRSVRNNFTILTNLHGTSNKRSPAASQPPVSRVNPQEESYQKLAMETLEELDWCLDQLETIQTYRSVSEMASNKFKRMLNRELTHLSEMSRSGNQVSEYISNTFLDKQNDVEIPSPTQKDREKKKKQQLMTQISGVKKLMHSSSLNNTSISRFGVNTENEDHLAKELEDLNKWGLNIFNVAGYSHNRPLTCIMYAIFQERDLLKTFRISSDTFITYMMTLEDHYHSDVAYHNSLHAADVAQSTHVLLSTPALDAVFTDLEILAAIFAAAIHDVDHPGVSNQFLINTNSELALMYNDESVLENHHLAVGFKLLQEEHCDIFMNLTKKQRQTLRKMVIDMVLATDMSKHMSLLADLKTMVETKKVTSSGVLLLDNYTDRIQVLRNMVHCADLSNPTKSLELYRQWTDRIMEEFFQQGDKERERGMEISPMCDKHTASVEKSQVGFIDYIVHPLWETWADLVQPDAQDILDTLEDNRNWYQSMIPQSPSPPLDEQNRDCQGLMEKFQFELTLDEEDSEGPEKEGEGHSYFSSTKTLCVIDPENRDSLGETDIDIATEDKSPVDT

[1] = human PDE4D, activity class, Table 9, read-out: hPDE4D
[2] = human PDE4B (hPDE4B), enzyme-coupled spectrophotometric assay, read-out: PDE4B Activity, hPDE4B

Chain of PDE4 (Q08499 whole entry): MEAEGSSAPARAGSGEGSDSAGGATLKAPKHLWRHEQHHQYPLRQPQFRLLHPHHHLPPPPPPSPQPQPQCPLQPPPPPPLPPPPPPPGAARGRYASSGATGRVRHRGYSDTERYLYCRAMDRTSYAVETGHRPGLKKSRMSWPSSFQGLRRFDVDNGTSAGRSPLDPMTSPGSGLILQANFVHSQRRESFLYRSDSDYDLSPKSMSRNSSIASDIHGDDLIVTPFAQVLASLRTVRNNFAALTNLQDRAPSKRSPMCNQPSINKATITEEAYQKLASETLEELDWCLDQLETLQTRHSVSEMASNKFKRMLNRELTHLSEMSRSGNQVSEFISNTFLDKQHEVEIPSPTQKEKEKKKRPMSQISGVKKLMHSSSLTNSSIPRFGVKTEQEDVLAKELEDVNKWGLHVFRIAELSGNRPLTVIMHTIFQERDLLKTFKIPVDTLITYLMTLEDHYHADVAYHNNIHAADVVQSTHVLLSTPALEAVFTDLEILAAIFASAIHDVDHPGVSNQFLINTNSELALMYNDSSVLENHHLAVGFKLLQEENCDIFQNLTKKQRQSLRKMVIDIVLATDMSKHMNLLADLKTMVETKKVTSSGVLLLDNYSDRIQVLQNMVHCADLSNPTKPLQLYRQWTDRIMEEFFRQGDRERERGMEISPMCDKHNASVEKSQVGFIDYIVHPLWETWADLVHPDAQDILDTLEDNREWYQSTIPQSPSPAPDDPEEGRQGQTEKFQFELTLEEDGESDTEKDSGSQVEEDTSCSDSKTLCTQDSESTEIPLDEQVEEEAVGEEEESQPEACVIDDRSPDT

Compound	IC50 (PDE4; [1])	IC50 (PDE4B; [2])	IC50 (PDE4)	IC50 (PDE4B)
COc1ccc(Oc2ccc(N)nc2)c(F)c1-c1cccc(C#N)c1 [P-439, 5-(3′-Cyano-2-fluoro-6-methoxy-biphenyl-3-yloxy)-pyridin-2-yl-ammonium chloride]	< 5 µM	< 5 µM		
COc1ccc(Cc2ccc(NS(C)(=O)=O)nc2)c(F)c1-c1cccc(Cl)c1 [P-258, N-[5-(3′-chloro-2-fluoro-6-methoxy-biphenyl-3-ylmethyl)-pyridin-2-yl]-methanesulfonamide]	< 5 µM	< 5 µM		
COc1ccc(Cc2ccnc(C#N)c2)c(F)c1-c1cccc(Cl)c1 [P-433, 4-(3′-Chloro-2-fluoro-6-methoxy-biphenyl-3-ylmethyl)-pyridine-2-carbonitrile]	< 5 µM	< 5 µM		
COc1ccc(Cc2ccc(NC(C)=O)nc2)c(F)c1-c1cccc(Cl)c1 [P-387]	< 5 µM	< 5 µM		
COc1ccc(Cc2cccc(NC(N)=O)c2)cc1-c1cccc(Cl)c1 [P-270, [3-(3′-Chloro-6-methoxy-biphenyl-3-ylmethyl)-phenyl]-urea]	< 5 µM	5 to 20 µM		
COc1ccc(Nc2ccc(NC(N)=O)cc2)cc1-c1cccc(C(C)=O)c1 [P-268, [4-(3′-acetyl-6-methoxy-biphenyl-3-ylamino)-phenyl]-urea]	< 5 µM	5 to 20 µM		
COc1ccc(Cc2ccc3nc(C(N)=O)cn3c2)c(F)c1-c1cccc(Cl)c1 [P-429, 6-(3′-chloro-2-fluoro-6-methoxy-biphenyl-3-ylmethyl)-imidazo[1,2-a]pyridine-2-carboxylic acid amide]	< 5 µM	< 5 µM		
COc1ccc(COc2ccc(N)cc2)c(F)c1-c1cccc(Br)c1 [P-199]	< 5 µM	< 5 µM		
COc1ccc(Cc2ccc(N(C)C)nc2)c(F)c1-c1cccc(Cl)c1 [P-473, [5-(3′-Chloro-2-fluoro-6-methoxy-biphenyl-3-ylmethyl)-pyridin-2-yl]-dimethyl-amine]	< 5 µM	< 5 µM		
Cn1nccc1Cc1ccc(OC(F)F)c(-c2ccc3c(c2)OCO3)c1 [P-201, 5-(3-Benzo[1,3]dioxol-5-yl-4-difluoromethoxy-benzyl)-1-methyl-1H-pyrazole]	5 to 20 µM	21 to 40 µM		
COc1ccc(Cc2ccc(N(C)C)cc2)c(F)c1-c1cccc(Cl)c1 [P-303, [4-(3′-Chloro-2-fluoro-6-methoxy-biphenyl-3-ylmethyl)-phenyl]-dimethyl-amine]	< 5 µM	< 5 µM		
COc1ccc(Cc2ccc(NS(C)(=O)=O)cc2)c(F)c1-c1cccc(Br)c1 [P-200]	< 5 µM	< 5 µM		
COc1ccc(Cc2ccc(N)cc2)c(F)c1-c1cccc(Br)c1 [P-453]	< 5 µM	< 5 µM		
COc1c(F)cc(Cc2ccc(NC(N)=O)cc2)cc1-c1cccc(Cl)c1 [P-550, [4-(3′-chloro-5-fluoro-6-methoxy-biphenyl-3-ylmethyl)-phenyl]-urea]	< 5 µM	< 5 µM		
CCNC(=O)Nc1ncc(Cc2ccc(OC)c(-c3cccc(C#N)c3)c2F)cn1 [P-399, 1-[5-(3′-Cyano-2-fluoro-6-methoxy-biphenyl-3-ylmethyl)-pyrimidin-2-yl]-3-ethyl-urea]	< 5 µM	< 5 µM		
COc1ccc(Cc2ccc(N)nc2)c(F)c1-c1cccc(C(C)=O)c1 [P-277, 1-[3′-(6-Amino-pyridin-3-ylmethyl)-2′-fluoro-6′-methoxy-biphenyl-3-yl]-ethanone]	< 5 µM	< 5 µM		
COc1ccc(Cc2cnc(NC(=O)NCCCl)nc2)c(F)c1-c1cccc(C(C)=O)c1 [P-366, 1-[5-(3′-Acetyl-2-fluoro-6-methoxy-biphenyl-3-ylmethyl)-pyrimidin-2-yl]-3-(2-chloro-ethyl)-urea]			< 5 µM	< 5 µM
COc1ccc(Cc2ccc(CN3CCOC3=O)nc2)c(F)c1-c1cccc(Cl)c1 [P-465, 3-[5-(3′-Chloro-2-fluoro-6-methoxy-biphenyl-3-ylmethyl)-pyridin-2-ylmethyl]-oxazolidin-2-one hydrochloride]	< 5 µM	< 5 µM		
COc1ccc(Cc2ccc(N3CCC[C@H]3C(N)=O)nc2)c(F)c1-c1cccc(Cl)c1 [P-612, (S)-1-[5-(3′-chloro-2-fluoro-6-methoxy-biphenyl-3-ylmethyl)-pyridin-2-yl]-pyrrolidine-2-carboxylic acid amide]	< 5 µM	< 5 µM		
CCNC(=O)Nc1ccc(Oc2ccc(OC)c(-c3cccc(C#N)c3)c2F)cn1 [P-440, 1-[5-(3′-Cyano-2-fluoro-6-methoxy-biphenyl-3-yloxy)-pyridin-2-yl]-3-ethyl-urea]	< 5 µM	5 to 20 µM		
COc1ccc(Cc2ccc(NC(C)=O)nc2)c(F)c1-c1cccc(C(C)=O)c1 [P-345]	< 5 µM	< 5 µM		
COc1ccc(Cn2ccnc2-c2cccnc2)c(F)c1-c1cccc(Cl)c1 [P-549, 3-[1-(3′-Chloro-2-fluoro-6-methoxy-biphenyl-3-ylmethyl)-1H-imidazol-2-yl]-pyridine hydrochloride salt]	< 5 µM	5 to 20 µM		
COc1ccc(Cc2ccc(CNC(=O)CN(C)C)cc2)c(F)c1-c1cccc([N+](=O)[O-])c1 [P-175]	< 5 µM	< 5 µM		
COc1ccc(Cc2ccc(CNC(N)=O)nc2)c(F)c1-c1cccc(Cl)c1 [P-368, [5-(3′-Chloro-2-fluoro-6-methoxy-biphenyl-3-ylmethyl)-pyridin-2-ylmethyl]-urea]	< 5 µM	< 5 µM		
COc1ccc(Cc2ccc(CNC(=O)N3CCN(C)CC3)nc2)c(F)c1-c1cccc(Cl)c1 [P-373, 4-Methyl-piperazine-1-carboxylic acid [5-(3′-chloro-2-fluoro-6-methoxy-biphenyl-3-ylmethyl)-pyridin-2-ylmethyl]-amide]	< 5 µM	5 to 20 µM		
COc1ccc(Cc2cnc(NS(C)(=O)=O)nc2)c(F)c1-c1cccc(Cl)c1 [P-292]	< 5 µM	5 to 20 µM		
COc1ccc(Cc2ccc(NC(C)=O)cc2)c(F)c1-c1cccc(Br)c1 [P-168]	< 5 µM	< 5 µM		
NC(=O)Nc1ccc(Cc2ccc(OC3COC3)c(-c3cccc(Cl)c3)c2)cc1 [P-555, {4-[3′-Chloro-6-(oxetan-3-yloxy)-biphenyl-3-ylmethyl]-phenyl}-urea]	< 5 µM	< 5 µM		

Second part, led by results:

IC50 (PDE4; [1])	IC50 (PDE4B; [2])	Compound	IC50 (PDE4)	IC50 (PDE4B)
5 to 20 µM	21 to 40 µM	COc1ccc(COC2CCCC2)nc1-c1cccc([N+](=O)[O-])c1 [P-038, 6-cyclopentyloxymethyl-3-methoxy-2-(3-nitro-phenyl)-pyridine]		
< 5 µM	< 5 µM	COc1cc(F)c(Cc2ccc(F)cc2)cc1-c1cccc([N+](=O)[O-])c1 [P-094, 4-Fluoro-5-(4-fluoro-benzyl)-2-methoxy-3′-nitro-biphenyl]		
< 5 µM	5 to 20 µM	COc1ccc(CN2C(=O)c3ccccc3C2=O)cc1-c1cccc([N+](=O)[O-])c1 [P-042, 2-(6-Methoxy-3′-nitro-biphenyl-3-ylmethyl)-isoindole-1,3-dione]		
< 5 µM	< 5 µM	COc1ccc(Cc2ccc(NC(N)=O)cc2)cc1-c1cccc(C#N)c1 [P-394, [4-(3′-Cyano-6-methoxy-biphenyl-3-ylmethyl)-phenyl]-urea]		
< 5 µM	< 5 µM	COc1ccc(Cc2cccc(CO)c2)cc1-c1cccc([N+](=O)[O-])c1 [P-103, [3-(6-Methoxy-3′-nitro-biphenyl-3-ylmethyl)-phenyl]-methanol]		
< 5 µM	< 5 µM	COc1ccc(CN2CCNC2=O)cc1-c1cccc([N+](=O)[O-])c1 [P-034, 1-(6-Methoxy-3′-nitro-biphenyl-3-ylmethyl)-imidazolidin-2-one]		
< 5 µM	< 5 µM	COc1ccc(Cn2ccnc2)cc1-c1ccc2c(c1)OCO2 [P-037, 1-(3-Benzo[1,3]dioxol-5-yl-4-methoxy-benzyl)-1H-imidazole]		
5 to 20 µM	5 to 20 µM	COc1ccc(CN2CCCC2=O)cc1-c1ccc(F)c(F)c1 [P-223, 1-(3′,4′-difluoro-6-methoxy-biphenyl-3-ylmethyl)-pyrrolidin-2-one]		
< 5 µM	< 5 µM	COc1ccc(Cc2ccc(CN)nc2)cc1-c1cccc(Cl)c1 [P-591, C-[5-(3′-chloro-6-methoxy-biphenyl-3-ylmethyl)-pyridin-2-yl]-methylamine hydrochloride]		
< 5 µM	< 5 µM	COc1ccc(Cc2ccc(C#N)cc2)c(O)c1-c1cccc([N+](=O)[O-])c1 [P-138, 4-(2-Hydroxy-6-methoxy-3′-nitro-biphenyl-3-ylmethyl)-benzonitrile]		
< 5 µM	< 5 µM	COc1ccc(Oc2ccc(F)cc2)cc1-c1cccc([N+](=O)[O-])c1 [P-193, 5-(4-Fluoro-phenoxy)-2-methoxy-3′-nitrobiphenyl]		
< 5 µM	< 5 µM	COc1ccc(Cc2ccc(F)cc2)c(F)c1-c1cccc([N+](=O)[O-])c1 [P-050]		
< 5 µM	< 5 µM	COc1ccc(Cc2ccccc2O)cc1-c1cccc([N+](=O)[O-])c1 [P-105, 2-(6-Methoxy-3′-nitro-biphenyl-3-ylmethyl)-phenol]		
< 5 µM	< 5 µM	COc1ccc(Cc2ccc(C#N)nc2)cc1-c1cccc(Cl)c1 [P-590, 5-(3′-chloro-6-methoxy-biphenyl-3-ylmethyl)-pyridine-2-carbonitrile]		
< 5 µM	< 5 µM	COc1ccc(Cc2ccc(NC(=O)CN)cc2)cc1-c1cccc([N+](=O)[O-])c1 [P-145]		
< 5 µM	< 5 µM	COc1ccc(Cn2ccc3ccccc32)cc1-c1cccc([N+](=O)[O-])c1 [P-010, 1-(6-Methoxy-3′-nitro-biphenyl-3-ylmethyl)-1H-indole]		
5 to 20 µM	< 5 µM	COc1ccc(Cn2ccc(CN)cc2=O)cc1-c1cccc([N+](=O)[O-])c1 [P-213, 4-Aminomethyl-1-(6-methoxy-3′-nitro-biphenyl-3-ylmethyl)-1H-pyridin-2-one]		
